Measurements: ChEMBL document CHEMBL3751727, “One-pot green synthesis of 1,3,5-triarylpentane-1,5-dione and triarylmethane derivatives as a new class of tyrosinase inhibitors” (Bioorg Med Chem Lett, 2016)
pIC50: −log10 of the molar value.

Legend:
Tyrosinase = target: T1, Tyrosinase (Agaricus bisporus, UniProt O42713)
T1 sequence (O42713 whole entry): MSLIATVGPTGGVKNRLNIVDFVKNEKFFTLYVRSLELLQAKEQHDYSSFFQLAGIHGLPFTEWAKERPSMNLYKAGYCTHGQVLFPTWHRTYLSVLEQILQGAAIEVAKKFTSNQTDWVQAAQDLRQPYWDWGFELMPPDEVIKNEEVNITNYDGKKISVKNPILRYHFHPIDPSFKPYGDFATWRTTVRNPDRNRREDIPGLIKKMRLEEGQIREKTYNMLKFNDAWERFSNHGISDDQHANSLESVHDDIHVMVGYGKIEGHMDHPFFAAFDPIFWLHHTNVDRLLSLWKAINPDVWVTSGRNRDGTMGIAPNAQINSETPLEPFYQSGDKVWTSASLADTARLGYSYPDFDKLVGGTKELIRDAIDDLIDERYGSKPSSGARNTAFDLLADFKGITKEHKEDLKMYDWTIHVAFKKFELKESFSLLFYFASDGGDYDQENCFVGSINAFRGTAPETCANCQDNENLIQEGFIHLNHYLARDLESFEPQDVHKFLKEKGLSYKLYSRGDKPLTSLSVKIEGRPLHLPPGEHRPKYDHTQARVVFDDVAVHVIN
Description: Inhibition of mushroom tyrosinase using L-tyrosine as substrate after 20 mins by spectrophotometric method

[1] = target: T2, Tyrosinase (Agaricus bisporus) (UniProt O42713); assay: Ratio of kojic acid IC50 to compound IC50 for mushroom tyrosinase
T2 sequence (whole entry): T1 sequence (O42713 whole entry)

pIC50 (Tyrosinase)	Ratio IC50 [1]	Compound
< 3.52		CC(=O)c1c(O)cccc1O
< 3.52		CC(=O)c1ccccc1O
7.54	30	O=C(/C=C/c1ccc(O)cc1O)c1ccccc1O
5.78		O=C(CC(CC(=O)c1ccccc1O)c1ccc(O)cc1O)c1ccccc1O
< 3.70		O=Cc1ccc(O)cc1O
6.01	30	O=C1CC(c2ccc(O)cc2O)Oc2ccccc21 (stereo unspecified)
5.57		O=c1cc(-c2ccc(O)cc2O)oc2cccc(O)c12
4.79		CC(=O)c1c(O)ccc(C(c2ccc(O)cc2O)c2ccc(O)c(C(C)=O)c2O)c1O
5.71		O=C1CC(c2ccc(O)cc2O)Oc2cccc(O)c21 (stereo unspecified)
